Patent publication US11642352B2, “Methods of treating wandering in Lewy dody dementia” (WOOLSEY PHARMACEUTICALS, INC., priority 2020, dated 2023)
Where a name gives a salt, the structure may show the parent alone. Read-outs that look alike come from different tables or passages of the source.

How the values were obtained:
[1] = in vivo, metabolite of fasudil; cited from earlier work
humans (AD) = settings: cited from earlier work
[2] = system: triple transgenic mouse model (APP Swedish, MAPT P301L, and PSEN1 M146V); settings: 10 mg/kg/day intraperitoneally; cited from earlier work
[3] = system: patients with wandering due to VaD; settings: cited from earlier work
triple transgenic mice = settings: 10 or 12 months of age, administered in water at 30 mg/kg and 100 mg/kg; cited from earlier work
[4] = system: patients with Alzheimer's Dementia (AD) and frontotemporal dementia (FTD); experiment: clinical trial of oral fasudil on frequency of wandering (Example 1); type: in vivo, human
Source text: Twenty patients, 10 with AD and 10 with FTD and an MMSE score ≤23, who are characterized wanderers, are enrolled into the study and observed for 2 weeks to confirm wandering behavior. […] The double-blind phase is followed by another treatment period of 6 weeks with the opposite treatment assignment (placebo or test drug taken with food).
The following inclusion criteria are applied:
1. Patients 50 years to 90 years of age.
2. Diagnosis of dementia (AD or VaD or mixed type) for at least 6 months.
3. For entering observation period and for entering open label treatment period: Wanders:
• a. Walks distinctly more than average as others of same age and ability AND/OR • b. Elopement behavior ≥3×per week in the opinion of the investigator For entering first double-blind treatment period: Wanders: • a. Walks less than half the mean distance measured in observation period AND/OR • b. Elopement behavior <1× per week in the opinion of the investigator AND/OR • c. Wandering has improved in the opinion of the Investigator. 4. For entering observation period and for entering open label treatment period: • a. MMSE between 10 and 25.
Wandering is measured in term of time in motion and distance traveled (measures of persistent wandering), attempted and successful boundary transgressions (measures of elopement) and patterns like pacing a lapping (indicative of persistent wandering and/or agitation or anxiety) using an electronic tracking device. A typical tracking device would use a combination of accelerometry with positioning, using technology like RFID or Bluetooth in an indoor environment and GPS outdoors. Other wayfinding, orientation and memory-associated wandering incidents are observed and recorded manually.
Wandering is measured in term of time in motion and attempted successful boundary transgression using an electronic tracking device. Other wayfinding, orientation and memory-associated wandering incidents are observed and recorded manually.
The Mini Mental State Exam (MMSE), Woolsey Wandering Questionnaire and Revised Algase Wandering Scale are administered at baseline and at the end of each treatment period. Any change in the use of antipsychotics or anxiolytics that could affect movement during the study is strongly discouraged.

APP/PS1 transgenic mice = settings: 5 and 10 mg/kg/day intraperitoneally; cited from earlier work
streptozotocin rats = settings: intraperitoneally; cited from earlier work
[5] = on drug as compared to placebo, 90 mg/day (30 mg TID)

O=S(=O)(c1cccc2c(O)nccc12)N1CCCNCC1 [M3]
half-life [1]: about 8 hours

O=c1ncn2nc(Sc3ccc(F)cc3F)ccc2c1-c1c(Cl)cccc1Cl [Neflamapimod]
primary endpoint of improving episodic memory (humans (AD); Phase 2): failed | tau in the cerebrospinal fluid (humans (AD); Phase 2): reducing tau | Aβ deposition (humans (AD); humans): no effect

O=S(=O)(c1cccc2cnccc12)N1CCCNCC1 [fasudil, Hexahydro-1-(5-isoquinolinesulfonyl)-1H-1,4-diazepine monohydrochloride hemihydrate]
ß-amyloid plaques in vivo [2]: reduce ß-amyloid plaques | wandering symptoms ([3]; patient with Binswanger-type cerebral infarction, within weeks of beginning treatment): wandering symptoms disappeared | wandering symptoms ([3]; patient with sequelae of cerebral bleeding and multiple lacunar infarctions): Wandering symptoms disappeared quickly | spatial memory (triple transgenic mice): did not observe improvements | wandering ([4]; 90 mg/day (30 mg TID) oral, 6 weeks, AD and FTD patients): significant reduction in wandering | mean increase in MMSE score, persistent wanderers [4, 5]: greater than 3 points | reduction of activity levels in persistent wanderers [4, 5]: about 50% | wayfinding errors and other problematic behaviors in sporadic wanderers ([4]; while on drug, 90 mg/day (30 mg TID)): significant reduction | latency distance and quadrant time in the Morris water maze (APP/PS1 transgenic mice): improved | latency distance and quadrant time in the Morris water maze (streptozotocin rats): improved
